The structures appear in SMILES notation.

For the data set, the system named is apple leaf cuticles. The data set can be described thus: Penetration of active compounds through enzymatically isolated apple leaf cuticles. The format is in vitro ADME, apple trees of the Golden Delicious variety. The source says:
Penetration* of spirotetramate with penetrants according to the invention compared to the control without penetrant and the rapid-action uptake enhancer Genapol® X150. All penetrants employed at 0.5 g/l.
This test measured the penetration of active compounds through enzymatically isolated cuticles of apple leaves.
The leaves used were cut in the fully developed state from apple trees of the Golden Delicious variety. The cuticles were isolated as follows: • first of all, leaf discs labelled on the underside with dye and formed by punching were filled by means of vacuum infiltration with a pectinase solution (0.2% to 2% strength) buffered to a pH of between 3 and 4, • then sodium azide was added and • the leaf discs thus treated were left to stand until the original leaf structure broke down and the non-cellular cuticles underwent detachment.
Thereafter only those cuticles from the top leaf sides that were free from stomata and hairs were used further. They were washed a number of times in alternation with water and with a buffer solution, pH 7. The clean cuticles obtained were, finally, applied to Teflon plaques and smoothed and dried with a gentle jet of air.
In the next step the cuticular membranes obtained in this way were placed in stainless steel diffusion cells (transport chambers) for the purpose of membrane transport investigations. For these investigations the cuticles were placed centrally using tweezers on the edges of the diffusion cells, which were coated with silicone grease, and sealed with a ring, which was likewise greased. The arrangement was chosen so that the morphological outer side of the cuticles was directed outwards, in other words to the air, while the original inner side was facing the interior of the diffusion cell.
The diffusion cells were filled with a 1% phospholipid suspension. Penetration was determined by applying in each case 10 μl of the spray liquor of the composition below, containing radiolabeled active compound in the stated concentrations, to the outer face of the cuticles. The spray liquor is prepared using local tap water of average hardness.
After the spray liquors had been applied, the water was evaporated and then the chambers were inverted and placed in thermostatted troughs, in which the temperature and air humidity over the cuticles was adjustable by means of a gentle air stream onto the cuticles with the spray coating (20° C., 60% rh). At regular intervals, an autosampler took aliquots which were subjected to measurement in a scintillation counter.
Facilitation of the penetration of various active compounds* by penetrants according to the invention exemplified by Crovol® CR70G in comparison to the control.

Where [1] appears, read: spirotetramate 0.2 g/l, control without additive.
The mark [2] stands for this setting: with 0.5 g/l Crovol CR70G, after 24 hours.
Setting [3] is: with 0.5 g/l Crovol CR70G, after 72 hours.
Setting [4] is: without Crovol CR70G, after 24 hours.
[5] abbreviates: without Crovol CR70G, after 72 hours.

Turning to `CCOC(=O)OC1=C(c2cc(C)ccc2C)C(=O)N[C@]12CC[C@@H](OC)CC2` [spirotetramate], the “% penetration after 24 h” value under setting [1] came to 0.1%. In addition, the “% penetration after 3 days” value under setting [1] was determined as 0.3%. The “% penetration (after hours)” value runs as follows: under setting [2], 5.8%; under setting [3], 40.5%; under setting [4], 0.1%; under setting [5], 0.3%.

Turning to `CC(C)(C)C(O)(CCc1ccc(Cl)cc1)Cn1cncn1` (centres unmarked) [Tebuconazole, tebuconazole], the “% penetration (after hours)” value runs as follows: under setting [2], 6.0%; under setting [3], 31.5%; under setting [4], less than 2%; under setting [5], less than 2%.

`O=[N+]([O-])NC1=NCCN1Cc1ccc(Cl)nc1` [Imidacloprid, imidacloprid]: the “% penetration (after hours)” value was 0.7% (apple (Malus domestica), 24 h) and 2.2% (apple (Malus domestica), 48 h).

For the compound `CS(=O)(=O)c1ccc(C(=O)C2C(=O)CCCC2=O)c(Cl)c1COCC(F)(F)F` [Tembotrione, tembotrione], the “% penetration (after hours)” value reads like this: (apple (Malus domestica), 6 h) less than 1%; (apple (Malus domestica), 18 h) less than 1%.

These data come from patent US8110592B2, “Agrochemical formulations that can be dispersed in water containing polyalkoxytriglycerides as penetration enhances” (priority 2006, dated 2012).
